The source of these data is patent EP1884243A1, “Use of an antipsychotic drug for the treatment of ALS-associated cachexia” (Charité - Universitätsmedizin Berlin, priority 2006, dated 2008).

One series has as its system ALS. The note with it: ALS patients; background statement on the approved therapy; cited from earlier work.
Series [1] deals with ALS-related cachexia. Nature of the series: Study: olanzapine treatment of ALS-related cachexia, case report of a patient. It is filed as in vivo, human being. An excerpt: A patient is reported, who developed a slowly-progressive motor neuron syndrome. The patient fulfilled the criteria for definite ALS. The disease began with atrophy and weakness of the small muscles of the left hand followed by weakness of the right distal arm. In the course of 2 years after onset they experienced slowly progressive atrophy and flaccid paresis of the upper limbs with only residual functions in handling articles. After 4 years they developed a gait disorder which progressed to the point were they required a walking-aid. […] The patient was without dysphagia.
During the course of 10 months, the patient developed an unintended weight loss of 12 kg of body weight resulting in fatigue and reduced mobility. The patient suffered from diminished appetite. The body mass index (BMI) was 17.2 kg/m^2 and fulfilled the diagnostic criteria of cachexia. For the pharmacological intervention of ALS-related cachexia the medication with olanzapine was initiated. Olanzapine was given orally in the dosage of 5 mg per day. Olanzapine was administered twice daily using one tablet of olanzapine 2.5 mg each in the morning and in the evening. […] The BMI increased to 18,8 kg/m^2. […] Residual motor functions were mobilized. […] At the time of this report, the olanzapine treatment was ongoing.

In series [2] the test system is ALS-related cachexia. Nature of the series: Study 2: olanzapine treatment of ALS-related cachexia, case report of a patient. It counts as in vivo, human being. The text has this: A patient is reported, who developed a slowly-progressive motor neuron syndrome. The patient fulfilled the criteria for ALS. The disease began with atrophy and weakness of the small muscles of the right hand followed by weakness of the proximal muscles of right arm and the opposite upper limb. In the course of 4 years after onset they experienced progressive atrophy and flaccid paresis of the lower limbs resulting in a gait disorder. […] The patient was without dysphagia.
During the course of 12 months, the patient developed an unintended weight loss of 8.5 kg of body weight. The weight loss was associated with fatigue. The patient suffered from diminished appetite. The body mass index (BMI) reduced from 23.3 kg/ m^2 to 20.5 kg/m^2. At the same time the ALS functional rating scale (ALS-FRS revised) changed from 43 to 39 units. Most of the wasting occurred within 6 month before intervention (loss of 6.5 kg of body weight; total body weight of 61.5 kg). For the pharmacological intervention of ALS-related cachexia the medication with olanzapine was initiated. Olanzapine was given orally in the dosage of 5 mg per day. Olanzapine was administered once daily using one tablet of olanzapine 5 mg in the evening. The medication attenuated ALS-related cachexia and wasting. After 2 month of olanzapine treatment the body weight was stabilized (61.0 kg). The loss of BMI was also attenuated (20.3 kg/m^2). […] Residual motor functions were mobilized. […] At the time of this report, the olanzapine dosage was increased to 10 mg per day. Olanzapine was administered twice daily using one tablet of olanzapine 5 mg each in the morning and in the evening. […] The olanzapine treatment was ongoing. Based on reports on olanzapine-related weight gain in patients with psychosis, the target dose of olanzapine for the treatment of ALS-cachexia is 20 mg per day. In the case of persistent ALS-related weight loss, the treatment with 30 mg olanzapine per day is recommended.

Series [3] deals with ALS-related cachexia. The series is described as follows: Study 3: olanzapine treatment of ALS-related cachexia, case report of a patient. It counts as in vivo, human being. The text has this:
A patient is reported, who developed a slowly-progressive motor neuron syndrome. The patient fulfilled the criteria for ALS. The disease began with atrophy and weakness of the proximal left arm followed by weakness of the distal muscles of left upper limb. In the course of 2 years after onset they experienced progressive atrophy and flaccid paresis of the opposite limb with only residual functions in handling articles. After 3 years the disorder progressed to the point that was complete loss of manual functions. The patient developed hypoventilation resulting in ventilatory support using non-invasive intermittent positive pressure ventilation (NIPPV). The patient was without dysphagia.
During the course of 9 months, the patient developed an unintended weight loss of 14.5 kg of body weight. The weight loss was associated with fatigue. The patient suffered from diminished appetite. The body mass index (BMI) reduced from 23.0 kg/ m^2 to 17.5 kg/m^2. Most of the wasting occurred within 5 month before intervention (loss of 8.5 kg of body weight; total body weight reduced from 55 kg to 46.5 kg). For the pharmacological intervention of ALS-related cachexia the medication with olanzapine was initiated. Olanzapine was given orally in the dosage of 5 mg per day. Olanzapine was administered once daily using one tablet of olanzapine 5 mg in the evening. After 4 weeks of treatment, olanzapine dosage was increased to 10 mg per day. Olanzapine was administered twice daily using one tablet of olanzapine 5 mg each in the morning and in the evening. The medication attenuated ALS-related cachexia and wasting. After 2 month of olanzapine treatment the body weight was stabilized (45.5 kg). The loss of BMI was also attenuated (17.1 kg/m^2). The nutritional state and the general strength improved. […] The olanzapine treatment was ongoing. Based on reports on olanzapine-related weight gain in patients with psychosis, the target dose of olanzapine for the treatment of ALS-cachexia is 20 mg per day. In the case of persistent ALS-related weight loss, the treatment with 30 mg olanzapine per day is recommended.

Consider `Nc1nc2ccc(OC(F)(F)F)cc2s1` [Riluzole], for which, in the series with ALS, the “prolonging an ALS-patient's lifetime” value is 1.5-2.5 months.
On to `Cc1cc2c(s1)Nc1ccccc1N=C2N1CCN(C)CC1` [olanzapine], for which the adverse events result with ALS-related cachexia [1] (olanzapine orally 5 mg per day) is “not associated with adverse events”; in the series with ALS-related cachexia [2] (olanzapine orally 5 mg per day, later increased to 10 mg per day), “not associated with adverse events”; in the series on ALS-related cachexia [3] (olanzapine orally 5 mg per day, after 4 weeks 10 mg per day) it was “not associated with adverse events”. For the same compound, the weight gain in the series with ALS-related cachexia [1] (olanzapine orally 5 mg per day (2.5 mg twice daily), within the course of 8 weeks, patient, BMI 17.2 kg/m^2 before treatment) is given as 6 kg. In addition, the BMI in the series on ALS-related cachexia [1] (olanzapine orally 5 mg per day, after treatment (8 weeks), BMI before treatment 17.2 kg/m^2) is 18,8 kg/m^2; in the series with ALS-related cachexia [2] (after 2 month of olanzapine 5 mg per day orally, BMI 20.5 kg/m^2 before intervention) it was 20.3 kg/m^2; in the series on ALS-related cachexia [3] (after 2 month of olanzapine (5 mg per day, after 4 weeks 10 mg per day, orally), BMI 17.5 kg/m^2 before intervention), 17.1 kg/m^2. Also, the body weight with ALS-related cachexia [2] (after 2 month of olanzapine 5 mg per day orally, total body weight 61.5 kg before intervention) is on record as 61.0 kg; in the series with ALS-related cachexia [3] (after 2 month of olanzapine (5 mg per day, after 4 weeks 10 mg per day, orally), 46.5 kg before intervention) it was 45.5 kg.
